Assay results: patent publication US7928089B2, “Mucoactive agents for treating a pulmonary disease” (Vectura Limited, priority 2003, dated 2011)

Assay: Stage 1 heparin dose-response: CF sputum viscoelasticity by magnetic microrheometry
Set-up: species or system human
Conditions: 30 minutes at 37°, 10 rad/s, 10 CF sputum samples; FIG. 3; NAL 309 mcg/mL
Procedure: An experimental programme was conducted to test the mucolytic activity of selected mucoactive agents. The primary objective of this initial protocol is to determine the mucolytic activity (capacity to reduce the viscosity and elasticity and thereby affect clearability) of heparin in cystic fibrosis sputum at concentrations of potential clinical relevance. This constitutes the Stage 1 experiment, below. The secondary objective is to compare heparin with other heparin fractions in a screening test for activity, incorporated in the Stage 2 experiment. […]
The magnetic microrheometer was described by King (King M (1988) “Magnetic microtheometer” Methods in Bronchial Mucology, pp. 73-83.). This instrument is used to measure the bulk viscosity and elasticity of microliter quantities of mucus. […]
When interpreting the results of the studies discussed herein, the primary variable of interest is the decrease in mucus viscoelasticity, expressed as delta log G* (corrected for vehicle treatment). […]
From each of 10 CF sputum samples, up to 6 aliquots of approximately 10-15 mg each were incubated for 30 minutes at 37° with either 0.9% NaCl or with one of the concentrations of heparin, or with N-acetylcysteine L-lysinate (NAL) (309 mcg/mL). Prior to incubation and following it, sputum viscoelasticity at 10 rad/s was determined by magnetic microrheometry. […]

N-acetylcysteine L-lysinate [NAL]
mucolytic effect (fractional decrease in G*): effective at a lower concentration compared to heparin
